Common to all, as to type: functional, cell-based
One experiment deals with HGC-27. The experiment can be described thus: Cytotoxicity against human HGC27 cells by MTT assay. For orientation: Tetrazolium dyes change colour on reduction, which living cells bring about.
Another experiment concerns A549. The experiment can be described thus: Cytotoxicity against human A549 cells by MTT assay.
The subject of the next experiment is HeLa. The experiment can be described thus: Cytotoxicity against human HeLa cells by MTT assay.

The source made the active and inactive calls. The calls are words filed in the database; no cut-off is given here.

Broadly, the IC50 is the midpoint of a concentration-inhibition curve. A higher IC50 goes with a need for much substance. As for `CC(=O)O[C@H]1C(=O)[C@@]2(C)[C@H]([C@H](OC(=O)c3ccccc3)[C@]3(O)C[C@H](OC(=O)[C@H](O)[C@@H](NC(=O)c4ccccc4)c4ccccc4)C(C)=C1C3(C)C)[C@]1(OC(C)=O)CO[C@@H]1C[C@@H]2O` [PACLITAXEL], the IC50 with HGC-27 amounted to 0.778 µM; in the experiment with A549, 0.0126 µM; in the experiment with HeLa, 0.0056 µM.

Compound `CC1=C2OC(C)(C)c3cc4c(c(c32)C(=O)C1=O)C(C)(O)C=CO4` (stereo not drawn) [BOMBAMALONE B] registered a half-inhibitory concentration (IC50) in the experiment with HGC-27 of over 10 µM. The outcome in the experiment with A549 and in the experiment on HeLa was inactive. On to `COc1c(O)c(C)cc2c1C(=O)C(=O)C=C2C(C)C` [BOMBAMALONE C], for which the IC50 with HGC-27 is over 10 µM. `COc1c(O)c(C)cc2c(C(C)C)cc(O)c(C=O)c12` gave an IC50 in the experiment on HGC-27 of over 10 µM. Consider `COc1c(C)cc2c(C(C)C)cc(O)c3c2c1OC3=O`, for which, in the experiment on HGC-27, the IC50 is over 10 µM. In the experiment with HGC-27, `CC1=C2OC(C)(C)c3cc(O[C@@H]4O[C@H](CO)[C@@H](O)[C@H](O)[C@H]4O)c(C(=O)O)c(c32)C(=O)C1=O` [BOMBAMALOSIDE] returned an IC50 of over 10 µM.

The compound `COC1=C2OC(=O)c3c(O)cc(C(C)C)c(c32)C(=O)C1(C)O` (stereo not drawn) [BOMBAMALONE A] displayed an IC50 in the experiment on HGC-27 of over 10 µM.

Compound `COC1=C(C)C(=O)c2c(C(C)C)cc(O)c(C(=O)O)c2C1=O` came in with an IC50 in the experiment on HGC-27 of over 10 µM. In the experiment on HGC-27, `Cc1cc2c(cc1O)[C@@](C)(O)C(=O)C=C2C(C)C` [LACINILENE C] returned an IC50 of over 10 µM.

For the origin of these results see ChEMBL document CHEMBL1141275, “Sesquiterpenoids from Bombax malabaricum” (J Nat Prod, 2007).
